Activity calls are given as the source filed them. No cut-off for these calls is given here.
How the values were obtained:
[1] = target: T1, Bromodomain testis-specific protein (Homo sapiens, UniProt Q58F21); test: Binding affinity to N-terminal hexa histidine-tagged human BRDT BD1 extracted from Escherichia coli BL21 (DE3) cells assessed as inhibition constant incubated for 1 hrs by fluorescence polarization assay
[2] = target: T2, Bromodomain-containing protein 4 (Homo sapiens, UniProt O60885); test: Binding affinity to N-terminal hexa histidine-tagged human BRD4 BD1 extracted from Escherichia coli BL21 (DE3) cells assessed as inhibition constant incubated for 1 hrs by fluorescence polarization assay
[3] = target: T1, Bromodomain testis-specific protein; conditions: dose 100.0 µM, time 30.0 min
[4] = target: T1, Bromodomain testis-specific protein; conditions: dose 100.0 µM, time 30.0 min; remark: listed apart in the source
MM1.S = test: Downregulation of c-MYC expression in human MM1.S cells measured after 6 hrs by Western blotting analysis; format: functional, cell-based; conditions: dose 0.1-10 µM
[5] = target: T2, Bromodomain-containing protein 4; test: Binding affinity to BRD4 BD1 (unknown origin) assessed as dissociation constant by BROMOscan analysis
[6] = target: T2, Bromodomain-containing protein 4; test: Binding affinity to BRD4 BD2 (unknown origin) assessed as dissociation constant by BROMOscan analysis
[7] = target: T1, Bromodomain testis-specific protein; test: Binding affinity to BRDT BD1 (unknown origin) assessed as dissociation constant by BROMOscan analysis
[8] = target: T1, Bromodomain testis-specific protein; test: Binding affinity to BRDT BD2 (unknown origin) assessed as dissociation constant by BROMOscan analysis
[9] = target: T1, Bromodomain testis-specific protein; test: Binding affinity to BRDT BD2 (unknown origin) at W293 residue

| Compound | Ki [1] | further results |
| --- | --- | --- |
| CCn1c2c(c(=O)[nH]c1=O)C1C(=C(C)N2)C(=O)OCc2ccccc2OCCCOc2cc(C)ccc21 (stereo not drawn) | 1.3 µM | – |
| CCn1c2c(c(=O)[nH]c1=O)C1C(=C(C)N2)C(=O)OCc2cccc(c2)OCCCOc2cc1ccc2C (stereo not drawn) | > 3.8 µM | Ki [2]: > 3.8 µM |
| CCn1c2c(c(=O)[nH]c1=O)C1C(=C(C)N2)C(=O)OCc2ccccc2OCCOc2cccc1c2 (stereo not drawn) | > 3.8 µM | – |
| CCn1c2c(c(=O)[nH]c1=O)C1C(=C(C)N2)C(=O)OCCCCOc2ccccc21 (stereo not drawn) | 11 µM | – |
| CCn1c2c(c(=O)[nH]c1=O)C1C(=C(C)N2)C(=O)OCCCOc2ccccc21 (stereo not drawn) | 9.2 µM | – |
| CCn1c2c(c(=O)[nH]c1=O)C1C(=C(C)N2)C(=O)OCCCOc2cc(C)ccc21 (stereo not drawn) | 8.1 µM | – |
| CCn1c2c(c(=O)[nH]c1=O)C1C(=C(C)N2)C(=O)OCc2ccccc2OCCOc2cc1ccc2C (stereo not drawn) | > 3.8 µM | – |
| CCn1c2c(c(=O)[nH]c1=O)C1C(=C(C)N2)C(=O)OCc2ccccc2OCCOc2cc(C)ccc21 (stereo not drawn) | – | ΔTm [3]: 3.4 °C; ΔTm [4]: 8.9 °C; Activity (MM1.S): Dose-dependent-effect |
| CCn1c2c(c(=O)[nH]c1=O)C(c1ccc(C)cc1)C(C(=O)OCc1ccccc1)=C(C)N2 (stereo not drawn) | 0.04 µM | Kd [5]: 0.38 µM; Ki [2]: 0.15 µM; Kd [6]: 0.065 µM; Kd [7]: 0.77 µM; Kd [8]: 0.067 µM |
| Cc1sc2c(c1C)C(c1ccc(Cl)cc1)=N[C@@H](CC(=O)OC(C)(C)C)c1nnc(C)n1-2 | – | Activity (MM1.S): Dose-dependent-effect |
| CCn1c2c(c(=O)[nH]c1=O)C1C(=C(C)N2)C(=O)NCc2ccccc2OCCCOc2ccccc21 (stereo not drawn) | > 3.8 µM | Ki [2]: > 3.8 µM |
| CCn1c2c(c(=O)[nH]c1=O)C1C(=C(C)N2)C(=O)OCc2ccccc2OCCCOc2cc1ccc2C (stereo not drawn) | 12 µM | – |
| CCn1c2c(c(=O)[nH]c1=O)C1C(=C(C)N2)C(=O)OCCCCOc2cc(C)ccc21 (stereo not drawn) | 1.7 µM | – |
| CCn1c2c(c(=O)[nH]c1=O)C1C(=C(C)N2)C(=O)OCc2ccccc2OCCCCOc2ccccc21 (stereo not drawn) | 1.9 µM | – |
| CCn1c2c(c(=O)[nH]c1=O)C1C(=C(C)N2)C(=O)OCc2ccccc2OCCCOc2ccccc21 (stereo not drawn) | 1.1 µM | ΔTm [3]: 2.8 °C; ΔTm [4]: 13 °C; Activity [9]: Active |
| CCn1c2c(c(=O)[nH]c1=O)C1C(=C(C)N2)C(=O)OCc2ccccc2OCCOc2ccccc21 (stereo not drawn) | 5.3 µM | – |

Source: ChEMBL document CHEMBL6177957, “Macrocyclic dihydropyridine analogs as pan-BET BD2-preferred inhibitors” (Eur J Med Chem, 2025)
